Measurements from PubChem BioAssay AID1963983 (Molecular Pharmacology Branch, DTP, NCI, 2024).

Tested on: 186277-243-T-J2-PDC multi-cell spheroid viability
Assay: Anticancer human tumor 186277-243-T-J2-PDC patient-derived colon adenocarcinoma cell line growth inhibition [PI3K]
Settings: for IC50: curve of first compound; for viability, T/C: stronger effect = lower value
Outline: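 Multi-cell spheroids combine tumor cells with HUVEC and human MSCs, treated with targeted agents alone or with inavolisib, alpelisib, duvelisib or copanlisib. Concentrations fall in half-log steps from at or near clinical Cmax, or from 10 microM where Cmax is unknown; viability read-out.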

[1] = second compound 0.00316 µM, first compound 0.0316 µM
[2] = second compound 0.00316 µM, first compound 0.1 µM
[3] = second compound 0.00316 µM, first compound 0.316 µM
[4] = second compound 0.00316 µM, first compound 1 µM
[5] = second compound 0.01 µM, first compound 0.0316 µM
[6] = second compound 0.01 µM, first compound 0.1 µM
[7] = second compound 0.01 µM, first compound 0.316 µM
[8] = second compound 0.01 µM, first compound 1 µM
[9] = second compound 0.0316 µM, first compound 0.0316 µM
[10] = second compound 0.0316 µM, first compound 0.1 µM
[11] = second compound 0.0316 µM, first compound 0.316 µM
[12] = second compound 0.0316 µM, first compound 1 µM
[13] = second compound 0.0316 µM, first compound 3.16 µM
[14] = second compound 0.0316 µM, first compound 10 µM
[15] = second compound 0.1 µM, first compound 0.0316 µM
[16] = second compound 0.1 µM, first compound 0.1 µM
[17] = second compound 0.1 µM, first compound 0.316 µM
[18] = second compound 0.1 µM, first compound 1 µM
[19] = second compound 0.1 µM, first compound 3.16 µM
[20] = second compound 0.1 µM, first compound 10 µM
[21] = second compound 0.316 µM, first compound 0.0316 µM
[22] = second compound 0.316 µM, first compound 0.1 µM
[23] = second compound 0.316 µM, first compound 0.316 µM
[24] = second compound 0.316 µM, first compound 1 µM
[25] = second compound 0.316 µM, first compound 3.16 µM
[26] = second compound 0.316 µM, first compound 10 µM
[27] = second compound 1 µM, first compound 0.0316 µM
[28] = second compound 1 µM, first compound 0.1 µM
[29] = second compound 1 µM, first compound 0.316 µM
[30] = second compound 1 µM, first compound 1 µM
[31] = second compound 1 µM, first compound 3.16 µM
[32] = second compound 1 µM, first compound 10 µM
[33] = second compound 0.0316 µM, first compound 0.00316 µM
[34] = second compound 0.0316 µM, first compound 0.01 µM
[35] = second compound 0.1 µM, first compound 0.00316 µM
[36] = second compound 0.1 µM, first compound 0.01 µM
[37] = second compound 0.316 µM, first compound 0.00316 µM
[38] = second compound 0.316 µM, first compound 0.01 µM
[39] = second compound 1 µM, first compound 0.00316 µM
[40] = second compound 1 µM, first compound 0.01 µM
[41] = second compound 3.16 µM, first compound 0.0316 µM
[42] = second compound 3.16 µM, first compound 0.1 µM
[43] = second compound 10 µM, first compound 0.0316 µM
[44] = second compound 10 µM, first compound 0.1 µM
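Further: spheroids exposed to compounds for seven days before viability reading.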
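Wherever viability, T/C is given: 100% = DMSO vehicle control viability.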

CCCS(=O)(=O)Nc1ccc(F)c(C(=O)c2c[nH]c3ncc(-c4ccc(Cl)cc4)cc23)c1F + CC(Nc1ccc2c(c1)OCCn1cc(N3C(=O)OCC3C(F)F)nc1-2)C(N)=O
IC50 (second compound 0.00316 µM): 4740 nM | IC50 (second compound 0.01 µM): 5430 nM | IC50 (second compound 0.0316 µM): 5340 nM | IC50 (second compound 0.1 µM): 5030 nM | IC50 (second compound 0.316 µM): 4570 nM | IC50 (second compound 1 µM): 4110 nM | viability, T/C [1]: 108% | viability, T/C [2]: 91.5% | viability, T/C [3]: 92.4% | viability, T/C [4]: 83.9% | viability, T/C (second compound 0.00316 µM, first compound 3.16 µM): 77.4% | viability, T/C (second compound 0.00316 µM, first compound 10 µM): 6.03% | viability, T/C [5]: 118% | viability, T/C [6]: 90.4% | viability, T/C [7]: 83.8% | viability, T/C [8]: 90.5% | viability, T/C (second compound 0.01 µM, first compound 3.16 µM): 89.9% | viability, T/C (second compound 0.01 µM, first compound 10 µM): 5.05% | viability, T/C [9]: 112% | viability, T/C [10]: 103% | viability, T/C [11]: 102% | viability, T/C [12]: 95.6% | viability, T/C [13]: 88.7% | viability, T/C [14]: 6.11% | viability, T/C [15]: 101% | viability, T/C [16]: 105% | viability, T/C [17]: 118% | viability, T/C [18]: 113% | viability, T/C [19]: 81.2% | viability, T/C [20]: 4% | viability, T/C [21]: 81% | viability, T/C [22]: 80.3% | viability, T/C [23]: 87.1% | viability, T/C [24]: 105% | viability, T/C [25]: 71.5% | viability, T/C [26]: 4.62% | viability, T/C [27]: 59% | viability, T/C [28]: 60.9% | viability, T/C [29]: 70.4% | viability, T/C [30]: 65.1% | viability, T/C [31]: 63.2% | viability, T/C [32]: 5.04%

CC(C)n1nc(-c2ccc3oc(N)nc3c2)c2c(N)ncnc21 + Cc1nc(NC(=O)N2CCCC2C(N)=O)sc1-c1ccnc(C(C)(C)C(F)(F)F)c1
IC50 (second compound 0.0316 µM): 53.1 nM | IC50 (second compound 0.1 µM): 52.6 nM | IC50 (second compound 0.316 µM): 38 nM | IC50 (second compound 1 µM): 24.5 nM | IC50 (second compound 3.16 µM): 2.04 nM | IC50 (second compound 10 µM): < 0.316 nM | viability, T/C (second compound 0.0316 µM, first compound 0.000316 µM): 106% | viability, T/C (second compound 0.0316 µM, first compound 0.001 µM): 90.3% | viability, T/C [33]: 101% | viability, T/C [34]: 101% | viability, T/C [9]: 73.5% | viability, T/C [10]: 21.5% | viability, T/C (second compound 0.1 µM, first compound 0.000316 µM): 101% | viability, T/C (second compound 0.1 µM, first compound 0.001 µM): 107% | viability, T/C [35]: 99.1% | viability, T/C [36]: 87.1% | viability, T/C [15]: 72.1% | viability, T/C [16]: 24.1% | viability, T/C (second compound 0.316 µM, first compound 0.000316 µM): 114% | viability, T/C (second compound 0.316 µM, first compound 0.001 µM): 107% | viability, T/C [37]: 79.9% | viability, T/C [38]: 82.4% | viability, T/C [21]: 63.7% | viability, T/C [22]: 14.7% | viability, T/C (second compound 1 µM, first compound 0.000316 µM): 113% | viability, T/C (second compound 1 µM, first compound 0.001 µM): 97.5% | viability, T/C [39]: 87.7% | viability, T/C [40]: 76.8% | viability, T/C [27]: 41% | viability, T/C [28]: 6.83% | viability, T/C (second compound 3.16 µM, first compound 0.000316 µM): 62.1% | viability, T/C (second compound 3.16 µM, first compound 0.001 µM): 56.8% | viability, T/C (second compound 3.16 µM, first compound 0.00316 µM): 46.2% | viability, T/C (second compound 3.16 µM, first compound 0.01 µM): 29% | viability, T/C [41]: 14.5% | viability, T/C [42]: 3.88% | viability, T/C (second compound 10 µM, first compound 0.000316 µM): 17.3% | viability, T/C (second compound 10 µM, first compound 0.001 µM): 16.8% | viability, T/C (second compound 10 µM, first compound 0.00316 µM): 10.8% | viability, T/C (second compound 10 µM, first compound 0.01 µM): 13.1% | viability, T/C [43]: 6.47% | viability, T/C [44]: 2.92%

CC1(C)CCC(Nc2ncc(C(F)(F)F)c(-c3c[nH]c4c(P(C)(C)=O)c(C#N)ccc34)n2)CN1 (stereo not drawn) + Cc1nc(NC(=O)N2CCCC2C(N)=O)sc1-c1ccnc(C(C)(C)C(F)(F)F)c1
IC50 (second compound 0.0316 µM): 3560 nM | IC50 (second compound 0.1 µM): 4030 nM | IC50 (second compound 0.316 µM): 2310 nM | IC50 (second compound 1 µM): 541 nM | IC50 (second compound 3.16 µM): < 31.6 nM | IC50 (second compound 10 µM): < 31.6 nM | viability, T/C [9]: 76.1% | viability, T/C [10]: 55.9% | viability, T/C [11]: 57.9% | viability, T/C [12]: 61.4% | viability, T/C [13]: 55.8% | viability, T/C [14]: 0.33% | viability, T/C [15]: 81.5% | viability, T/C [16]: 54.2% | viability, T/C [17]: 56.7% | viability, T/C [18]: 59% | viability, T/C [19]: 65% | viability, T/C [20]: 0.22% | viability, T/C [21]: 77% | viability, T/C [22]: 65.4% | viability, T/C [23]: 55.4% | viability, T/C [24]: 60.7% | viability, T/C [25]: 48.7% | viability, T/C [26]: 0.44% | viability, T/C [27]: 63.4% | viability, T/C [28]: 57.9% | viability, T/C [29]: 49.5% | viability, T/C [30]: 49.2% | viability, T/C [31]: 28.3% | viability, T/C [32]: 0.27% | viability, T/C [41]: 31% | viability, T/C [42]: 34.3% | viability, T/C (second compound 3.16 µM, first compound 0.316 µM): 21.6% | viability, T/C (second compound 3.16 µM, first compound 1 µM): 29.4% | viability, T/C (second compound 3.16 µM, first compound 3.16 µM): 8.8% | viability, T/C (second compound 3.16 µM, first compound 10 µM): 0.65% | viability, T/C [43]: 7.49% | viability, T/C [44]: 7.95% | viability, T/C (second compound 10 µM, first compound 0.316 µM): 8.74% | viability, T/C (second compound 10 µM, first compound 1 µM): 4.41% | viability, T/C (second compound 10 µM, first compound 3.16 µM): 5.08% | viability, T/C (second compound 10 µM, first compound 10 µM): 1.35%

CCN1CCN(Cc2ccc(Nc3ncc(F)c(-c4cc(F)c5nc(C)n(C(C)C)c5c4)n3)nc2)CC1 + COc1c(OCCCN2CCOCC2)ccc2c3n(c(=NC(=O)c4cnc(N)nc4)nc12)CCN3
IC50 (second compound 0.00316 µM): > 1000 nM | IC50 (second compound 0.01 µM): > 1000 nM | IC50 (second compound 0.0316 µM): 234 nM | IC50 (second compound 0.1 µM): < 3.16 nM | IC50 (second compound 0.316 µM): < 3.16 nM | IC50 (second compound 1 µM): < 3.16 nM | viability, T/C (second compound 0.00316 µM, first compound 0.00316 µM): 95.3% | viability, T/C (second compound 0.00316 µM, first compound 0.01 µM): 111% | viability, T/C [1]: 94.3% | viability, T/C [2]: 134% | viability, T/C [3]: 151% | viability, T/C [4]: 108% | viability, T/C (second compound 0.01 µM, first compound 0.00316 µM): 101% | viability, T/C (second compound 0.01 µM, first compound 0.01 µM): 107% | viability, T/C [5]: 113% | viability, T/C [6]: 112% | viability, T/C [7]: 123% | viability, T/C [8]: 69.4% | viability, T/C [33]: 68.4% | viability, T/C [34]: 59.7% | viability, T/C [9]: 57.8% | viability, T/C [10]: 52.4% | viability, T/C [11]: 54.8% | viability, T/C [12]: 33.2% | viability, T/C [35]: 19.9% | viability, T/C [36]: 17.7% | viability, T/C [15]: 16% | viability, T/C [16]: 13% | viability, T/C [17]: 14.5% | viability, T/C [18]: 12.8% | viability, T/C [37]: 6.67% | viability, T/C [38]: 7.13% | viability, T/C [21]: 4.73% | viability, T/C [22]: 3.28% | viability, T/C [23]: 6.05% | viability, T/C [24]: 7.03% | viability, T/C [39]: 2.68% | viability, T/C [40]: 3% | viability, T/C [27]: 2.82% | viability, T/C [28]: 2.7% | viability, T/C [29]: 7% | viability, T/C [30]: 4.26%
